# What was measured:
# hEP4 [1] = biological target: T1, hEP4 (Homo sapiens, UniProt P35408); test: Radioligand binding, human EP4 receptor; details: NA = not active
# T1 construct: expressed in transfected cells
# Experimental: (§1) Plasmids encoding the human EP1, EP2, EP3, EP4, FP, TP, IP and DP receptors were prepared by cloning the respective coding sequences into the eukaryotic expression vector pCEP4 (Invitrogen). The pCEP4 vector contains an Epstein Barr virus (EBV) origin of replication, which permits episomal replication in primate cell lines expressing EBV nuclear antigen (EBNA-1). It also contains a hygromycin resistance gene that is used for eukaryotic selection. The cells employed for stable transfection were human embryonic kidney cells (HEK-293) that were transfected with and express the EBNA-1 protein. These HEK-293-EBNA cells (Invitrogen) were grown in medium containing Geneticin (G418) to maintain expression of the EBNA-1 protein. HEK-293 cells were grown in DMEM with 10% fetal bovine serum (FBS), 250 μg ml^−1 G418 (Life Technologies) and 200 μg ml^−1 gentamicin or penicillin/streptomycin.
# (§2) For transfection, the cells were grown to 50-60% confluency on 10 cm plates. The plasmid pCEP4 incorporating cDNA inserts for the respective human prostanoid receptor (20 μg) was added to 500 μl of 250 mM CaCl2. HEPES buffered saline×2 (2×HBS, 280 mM NaCl, 20 mM HEPES acid, 1.5 mM Na2HPO4, pH 7.05-7.12) was then added dropwise to a total of 500 μl, with continuous vortexing at room temperature. After 30 min, 9 ml DMEM were added to the mixture. The DNA/DMEM/calcium phosphate mixture was then added to the cells, which had been previously rinsed with 10 ml PBS. The cells were then incubated for 5 hr at 37° C. in humidified 95% air/5% CO2. […]
# Radioligand binding studies on plasma membrane fractions prepared for cells stably transfected with the cat or human receptor were performed as follows. […] The pellet was then resuspended in TME buffer to provide a final protein concentration of 1 mg/ml, as determined by Bio-Rad assay. […]
# The binding of [^3H](N) PGE2 (specific activity 165 Ci/mmol) was determined in duplicate and in at least 3 separate experiments. […] Competition studies were performed using a final concentration of 2.5 or 5 nM [^3H](N) PGE2 and non-specific binding was determined with 10^−5 M unlabelled PGE2.
# hTP = biological target: T2, hTP (Homo sapiens, UniProt P21731); test: Functional data, human TP receptor; type: cell-based; details: NA = not active
# T2 construct: expressed in transfected cells
# T2 sequence (P21731 1-343): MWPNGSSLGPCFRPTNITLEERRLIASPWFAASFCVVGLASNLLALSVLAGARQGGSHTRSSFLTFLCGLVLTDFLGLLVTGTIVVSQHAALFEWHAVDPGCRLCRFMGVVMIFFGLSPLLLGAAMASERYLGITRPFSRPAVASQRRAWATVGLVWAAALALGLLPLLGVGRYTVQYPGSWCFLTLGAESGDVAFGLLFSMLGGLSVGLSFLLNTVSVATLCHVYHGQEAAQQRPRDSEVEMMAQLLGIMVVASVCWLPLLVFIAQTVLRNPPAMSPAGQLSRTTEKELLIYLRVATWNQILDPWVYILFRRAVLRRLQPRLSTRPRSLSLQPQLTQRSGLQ
# Experimental: as §1
# (§3) For transfection, the cells were grown to 50-60% confluency on 10 cm plates. The plasmid pCEP4 incorporating cDNA inserts for the respective human prostanoid receptor (20 μg) was added to 500 μl of 250 mM CaCl2. HEPES buffered saline×2 (2×HBS, 280 mM NaCl, 20 mM HEPES acid, 1.5 mM Na2HPO4, pH 7.05-7.12) was then added dropwise to a total of 500 μl, with continuous vortexing at room temperature. After 30 min, 9 ml DMEM were added to the mixture. The DNA/DMEM/calcium phosphate mixture was then added to the cells, which had been previously rinsed with 10 ml PBS. The cells were then incubated for 5 hr at 37° C. in humidified 95% air/5% CO2. The calcium phosphate solution was then removed and the cells were treated with 10% glycerol in DMEM for 2 min. The glycerol solution was then replaced by DMEM with 10% FBS. The cells were incubated overnight and the medium was replaced by DMEM/10% FBS containing 250 μg ml^−1 G418 and penicillin/streptomycin. The following day hygromycin B was added to a final concentration of 200 μg ml^−1.
# (§4) Ten days after transfection, hygromycin B resistant clones were individually selected and transferred to a separate well on a 24 well plate. At confluence each clone was transferred to one well of a 6 well plate, and then expanded in a 10 cm dish. Cells were maintained under continuous hygromycin selection until use.
# hEP4 [2] = biological target: T1, hEP4; test: Functional data, human EP4 receptor; type: cell-based; details: NA = not active
# Experimental: as §1, §3, §4
# hEP1 = biological target: T3, hEP1 (Homo sapiens, UniProt P34995); test: Functional data, human EP1 receptor; type: cell-based; details: NA = not active
# T3 construct: expressed in transfected cells
# T3 sequence (P34995 1-402): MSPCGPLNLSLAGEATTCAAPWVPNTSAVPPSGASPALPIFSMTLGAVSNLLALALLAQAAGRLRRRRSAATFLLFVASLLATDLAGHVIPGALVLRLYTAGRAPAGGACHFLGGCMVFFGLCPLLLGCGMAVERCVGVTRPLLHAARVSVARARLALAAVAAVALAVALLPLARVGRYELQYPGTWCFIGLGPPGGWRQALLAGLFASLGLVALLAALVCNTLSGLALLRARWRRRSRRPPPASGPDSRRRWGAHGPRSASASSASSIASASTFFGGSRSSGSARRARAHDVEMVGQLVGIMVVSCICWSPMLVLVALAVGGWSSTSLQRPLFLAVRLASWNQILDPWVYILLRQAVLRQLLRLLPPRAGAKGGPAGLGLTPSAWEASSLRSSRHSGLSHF
# Experimental: as §1, §3
# Ten days after transfection, hygromycin B resistant clones were individually selected and transferred to a separate well on a 24 well plate. […]
# normotensive dogs [3] = test: Ocular surface hyperemia in dogs; type: in vivo, dog; details: topical once daily dosing, 0.1%, 1.5 at 26, 50 and 52 h
# Experimental: (§5) The effects of the compounds of this invention on intraocular pressure may be measured as follows. The compounds are prepared at the desired concentrations in a vehicle comprising 0.1% polysorbate 80 and 10 mM TRIS base. Dogs are treated by administering 25 μl to the ocular surface, the contralateral eye receives vehicle as a control. Intraocular pressure is measured by applanation pneumatonometry. A topical once daily dosing of (4-{(R)-2-[(E)-4-(3-chlorophenyl)-3-hydroxy-but-1-enyl]-5-oxo-pyrrolidin-1-yl}-butoxy)-acetic acid [example 8] […] The maximum ocular surface hyperemia score was 1.5 (1.5 at 26, 50 and 52 h).
# normotensive dogs [4] = test: Intraocular pressure in dogs, applanation pneumatonometry; type: in vivo, dog; details: topical once daily dosing, 0.1%, at 52 h, normotensive dogs (n=8)
# Experimental: as §5
# hEP3A = biological target: T4, hEP3A (Homo sapiens, UniProt P43115); test: Functional data, human EP3A receptor; type: cell-based; details: NA = not active
# T4 construct: expressed in transfected cells
# T4 sequence (P43115 1-390): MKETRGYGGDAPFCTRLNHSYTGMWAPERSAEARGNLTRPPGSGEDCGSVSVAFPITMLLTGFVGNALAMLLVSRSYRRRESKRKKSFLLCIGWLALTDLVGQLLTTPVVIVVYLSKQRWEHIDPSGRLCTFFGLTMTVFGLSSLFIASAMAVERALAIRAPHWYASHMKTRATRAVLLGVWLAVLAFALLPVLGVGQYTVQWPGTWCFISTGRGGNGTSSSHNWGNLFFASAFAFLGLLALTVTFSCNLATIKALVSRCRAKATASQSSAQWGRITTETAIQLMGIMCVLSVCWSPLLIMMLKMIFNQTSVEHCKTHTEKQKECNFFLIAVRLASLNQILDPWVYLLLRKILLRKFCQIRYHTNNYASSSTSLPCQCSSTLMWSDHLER
# Experimental: as §1
# as §2, with “mixture.” for “mixture. The DNA/DMEM/calcium phosphate mixture was then added to the cells, which had been previously rinsed with 10 ml PBS. The cells were then incubated for 5 hr at 37° C. in humidified 95% air/5% CO2.”
# T1 sequence (P35408 whole entry): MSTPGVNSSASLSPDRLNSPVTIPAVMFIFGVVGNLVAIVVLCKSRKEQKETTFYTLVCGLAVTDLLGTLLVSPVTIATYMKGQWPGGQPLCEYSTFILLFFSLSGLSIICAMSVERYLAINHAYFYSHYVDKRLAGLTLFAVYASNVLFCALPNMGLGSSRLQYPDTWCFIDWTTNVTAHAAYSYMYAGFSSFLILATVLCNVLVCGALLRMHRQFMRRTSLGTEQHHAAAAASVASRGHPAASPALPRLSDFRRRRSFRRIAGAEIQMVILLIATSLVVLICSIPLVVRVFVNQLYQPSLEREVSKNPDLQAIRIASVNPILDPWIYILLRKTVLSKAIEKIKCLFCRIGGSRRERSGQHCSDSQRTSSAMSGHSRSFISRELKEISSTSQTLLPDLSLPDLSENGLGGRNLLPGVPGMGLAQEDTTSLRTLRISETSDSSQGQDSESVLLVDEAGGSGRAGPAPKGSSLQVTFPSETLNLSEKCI
Compound,IC50 (hEP4 [1]),EC50 (hTP),EC50 (hEP4 [2]),EC50 (hEP1),other results
"O=C(O)COCCCCN1C(=O)CC[C@@H]1CC[C@H](O)Cc1cccc(Cl)c1 (stereo in doubt) [Example 6, (4-{(R)-2-[4-(3-Chlorophenyl)-3-hydroxy-butyl]-5-oxo-pyrrolidin-1-yl}-butoxy)-acetic Acid]",562 nM,> 10000 nM,192 nM,3810 nM,–
"COC(=O)COCCCCN1C(=O)CC[C@@H]1CC[C@H](O)Cc1cccc(Cl)c1 (stereo in doubt) [Example 5, (4-{(R)-2-[4-(3-Chlorophenyl)-3-hydroxy-butyl]-5-oxo-pyrrolidin-1-yl}-butoxy)-acetic Acid Methyl Ester]",–,–,1780 nM,> 10000 nM,–
"COC(=O)COCCCCN1C(=O)CC[C@@H]1/C=C/C(=O)Cc1cccc(Cl)c1 [Example 1, (4-{(R)-2-[(E)-4-(3-chlorolphenyl)-3-oxo-but-1-enyl]-5-oxo-pyrrolidin-1-yl}-butoxy)-acetic Acid Methyl Ester]",–,–,61 nM,721 nM,–
"COC(=O)COCCCCN1C(=O)CC[C@@H]1/C=C/[C@H](O)Cc1cccc(Cl)c1 [Example 7, (4-{(R)-2-[(E)-4-(3-Chlorophenyl)-3-hydroxy-but-1-enyl]-5-oxo-pyrrolidin-1-yl}-butoxy)-acetic Acid Methyl Ester]",–,–,> 10000 nM,–,–
"COC(=O)COCCCCN1C(=O)CCC1CCC(=O)Cc1cccc(Cl)c1 (stereo in doubt) [Example 3, (4-{(R)-2-[4-(3-Chlorophenyl)-3-oxo-butyl]-5-oxo-pyrrolidin-1-yl}-butoxy)-acetic Acid Methyl Ester]",–,> 10000 nM,> 10000 nM,–,–
"O=C(O)COCCCCN1C(=O)CC[C@@H]1/C=C/[C@H](O)Cc1cccc(Cl)c1 [Example 8, (4-{(R)-2-[(E)-4-(3-Chlorolphenyl)-3-hydroxy-but-1-enyl]-5-oxo-pyrrolidin-1-yl}-butoxy)-acetic Acid]",30 nM,> 10000 nM,11 nM,–,maximum ocular surface hyperemia score (normotensive dogs [3]): 1.5; maximum IOP decrease from baseline (normotensive dogs [4]): 4.9 mmHg; maximum IOP decrease from baseline (percent) (normotensive dogs [4]): 26.6%
O=C(O)COCCCCN1C(=O)CC[C@@H]1/C=C/C(=O)Cc1cccc(Cl)c1 [Example 2],–,< 10000 nM,–,–,EC50 (hEP3A): > 10000 nM
"O=C(O)COCCCCN1C(=O)CCC1CCC(=O)Cc1cccc(Cl)c1 (stereo in doubt) [Example 4, (4-{(R)-2-[4-(3-Chlorophenyl)-3-oxo-butyl]-5-oxo-pyrrolidin-1-yl}-butoxy)-acetic Acid]",3100 nM,> 10000 nM,1720 nM,–,–

# Source: patent publication US6734206B1, “3-oxa-8-azaprostaglandin analogs as agents for lowering intraocular pressure” (Allergan, Inc., priority 2003, dated 2004)
